Laboratory results reported in patent US20100048398A1, “HERBICIDAL COMBINATION” (SYNGENTA CROP PROTECTION, INC., priority 2006, published 2010).

Legend:
Assay in all cases: Glasshouse peri-emergence herbicide test, damage to plant
Format in all cases: in vivo
Details in all cases: sprayed six days after sowing (peri-emergence), evaluated after 14 days; rate gai/ha: Prosulfocarb 2400, Flumioxazin 20, combination 2400 + 20
POAAN = Poa annua = tested on: POAAN = Poa annua
Description: (§1) Seeds of a variety of test species were sown in standard soil. After cultivation for six days (peri-emergence) under controlled conditions in a glasshouse (at 24/16° C., day/night; 14 hours light; 65% humidity), the plants were sprayed with an aqueous spray solution comprising the technical active ingredient(s). The test plants were then grown in a glasshouse under controlled conditions in a glasshouse (at 24/16° C., day/night; 14 hours light; 65% humidity) and watered twice daily. After 14 days, the test was evaluated (100=total damage to plant; 0=no damage to plant).

[1] = tested on: LOLMU = Lolium multiflorum
Description: as §1

[2] = tested on: VERPE = Veronica persicae
Description: as §1

[3] = tested on: ALOMY = Alopecurus myosuroides
Description: as §1

HORVW = Hordeum vulgare = tested on: HORVW = Hordeum vulgare
Description: as §1

TRZAW = Tritcum aestivum = tested on: TRZAW = Tritcum aestivum
Description: as §1

GALAP = Galium aparine = tested on: GALAP = Galium aparine
Description: as §1

[4] = tested on: APESV = Apera spica-venti
Description: as §1

AVEFA = Avena fatua = tested on: AVEFA = Avena fatua
Description: as §1

SMILES | damage to plant (100=total damage; 0=no damage), POAAN (POAAN = Poa annua) | damage to plant (100=total damage; 0=no damage), LOLMU [1] | damage to plant (100=total damage; 0=no damage), VERPE [2] | damage to plant (100=total damage; 0=no damage), ALOMY [3] | damage to plant (100=total damage; 0=no damage), HORVW (HORVW = Hordeum vulgare) | damage to plant (100=total damage; 0=no damage), TRZAW (TRZAW = Tritcum aestivum) | damage to plant (100=total damage; 0=no damage), GALAP (GALAP = Galium aparine) | damage to plant (100=total damage; 0=no damage), APESV [4] | damage to plant (100=total damage; 0=no damage), AVEFA (AVEFA = Avena fatua)
C#CCN1C(=O)COc2cc(F)c(N3C(=O)C4=C(CCCC4)C3=O)cc21 [Flumioxazin, flumioxazin] | 5 | 0 | 99 | 33 | 0 | 8 | 73 | 60 | 8
CCCN(CCC)C(=O)SCc1ccccc1 [Prosulfocarb, prosulfocarb] | 0 | 30 | 88 | 78 | – | – | 78 | 95 | 55
